target: LC3B (Homo sapiens, UniProt Q9GZQ8); experiment: Fluorescence Polarization (FP) Assay: displacement of FITC-labeled peptide from GST-LC3B; format: binding; conditions: not given
Method: The compounds of the present invention for regulating the autophagy-related protein LC3B were tested by Fluorescence Polarization (FP) Assay.
Fluorescence Polarization (FP) Assay Test

SMILES | IC50 [µM]
CN(C)CCNC=C1C(=O)CC(c2cccc(Cl)c2F)CC1=O (stereo not shown) [Compound 384, 5-(3-chloro-2-fluorophenyl)-2-(((2-(dimethylamino)ethyl)amino)methylene) cyclohexane-1,3-dione] | < 3

same assay, conditions: Fluorescence Polarization assay; GST-LC3B 180 nM, FITC-labeled peptide 18 nM, 25° C.; read-out: IC50

SMILES | IC50 [µM]
O=C1CCCC(=O)C1=CNCCN1CCN(CCO)CC1 [Compound 11, 2-(((2-(4-(2-hydroxyethyl)piperazin-1-yl)ethyl)amino)methylene) cyclohexane-1,3-dione] | 100 to 1000
O=C1CC(c2ccc(C(F)(F)F)cc2)CC(=O)C1=CNCCN1CCN(CCO)CC1 (stereo not shown) [Compound 48, 2-(((2-(4-(2-hydroxyethyl)piperazin-1-yl)ethyl)amino)methylene)-5-(4-(trifluoromethyl)phenyl) cyclohexane-1,3-dione] | < 3
O=C1CC(c2ccco2)CC(=O)C1=CNCCN1CCN(CCO)CC1 (stereo not shown) [Compound 43, 5-(furan-2-yl)-2-(((2-(4-(2-hydroxyethyl)piperazin-1-yl)ethyl)amino)methylene) cyclohexane-1,3-dione] | 3 to 15
CN1CCN(c2ccc(C3CC(=O)C(=CNCCN4CCN(CCO)CC4)C(=O)C3)cn2)CC1 (stereo not shown) [Compound 79, 2-(((2-(4-(2-hydroxyethyl)piperazin-1-yl)ethyl)amino)methylene)-5-(6-(4-methylpiperazin-1-yl)pyridin-3-yl) cyclohexane-1,3-dione] | 100 to 1000
CCC(CC)C1CC(=O)C(=CNCCN2CCN(CCO)CC2)C(=O)C1 (stereo not shown) [Compound 63, 2-(((2-(4-(2-hydroxyethyl)piperazin-1-yl)ethyl)amino)methylene)-5-(pentan-3-yl) cyclohexane-1,3-dione] | 15 to 100
O=C1CC(c2cccc3c2OCCO3)CC(=O)C1=CNCCN1CCN(CCO)CC1 (stereo not shown) [Compound 56, 5-(2,3-dihydrobenzo [b][1,4]dioxin-5-yl)-2-(((2-(4-(2-hydroxyethyl)piperazin-1-yl)ethyl)amino)methylene) cyclohexane-1,3-dione] | 3 to 15

Second part, the compound after the results:

IC50 [µM] | SMILES
< 3 | CC(F)(F)c1ccccc1C1CC(=O)C(=CNCCN2CCN(CCO)CC2)C(=O)C1 (stereo not shown) [Compound 404, 5-(2-(1,1-difluoroethyl)phenyl)-2-(((2-(4-(2-ethoxyl)piperazin-1-yl)ethyl)amino)methylene) cyclohexane-1,3-dione]
< 3 | Cc1ccc(C2CC(=O)C(=CNCCN3CCN(C(=S)Nc4ccccc4)CC3)C(=O)C2)cc1 (stereo not shown) [Compound 231, 4-(2-(((2,6-dioxo-4-(p-tolyl)cyclohexylidene)methyl)amino)ethyl)-N-phenylpiperazine-1-carbothioamide]
3 to 15 | CN(C)C=C1C(=O)CC(c2cccc3c2ccn3C)CC1=O (stereo not shown) [Compound 295, 2-((dimethylamino)methylene)-5-(1-methyl-1H-indol-4-yl)cyclohexane-1,3-dione]
< 3 | CN(C)CCNC=C1C(=O)CC(c2cscc2Br)CC1=O (stereo not shown) [Compound 388, 5-(4-bromothiophen-3-yl)-2-(((2-(dimethylamino)ethyl)amino)methylene) cyclohexane-1,3-dione]
3 to 15 | COc1ccc(C2CC(=O)C(=CO)C(=O)C2)c(OC)c1 (stereo not shown) [Compound 424, 2-(hydroxymethylene)-5-(2,4-dimethoxyphenyl) cyclohexane-1,3-dione]
15 to 100 | O=C1C(=CNCCN2CCN(CCO)CC2)C(=O)C(c2ccccc2)CC1Cc1ccccc1 (stereo not shown) [Compound 101, 4-benzyl-2-(((2-(4-(2-hydroxyethyl)piperazin-1-yl)ethyl)amino)methylene)-6-phenylcyclohexane-1,3-dione]
< 3 | CS(=O)(=O)N1CCN(CCNC=C2C(=O)CC(c3ccccc3)CC2=O)CC1 (stereo not shown) [Compound 218, 2-(((2-(4-(methylsulfonyl)piperazin-1-yl)ethyl)amino)methylene)-5-phenylcyclohexane-1,3-dione]
15 to 100 | O=C1CCN(c2ccccc2)C(=O)/C1=C\O [Compound 450, 3-(hydroxymethylene)-N-phenylpiperidine-2,4-dione]
3 to 15 | CN(C)CCCCNC=C1C(=O)CC(c2ccccc2)CC1=O (stereo not shown) [Compound 170, 2-(((4-(dimethylamino)butyl)amino)methylene)-5-phenylcyclohexane-1,3-dione]
